The results in this text go back to patent publication US10934310B2, “Inhibitors of Bruton's tyrosine kinase and method of their use” (JANSSEN PHARMACEUTICA NV, priority 2015, dated 2021).

Structures are written as SMILES.

This test addresses unphosphorylated-BTK kinase domain (UP-BTK), GST-tagged human BTK (389-659aa) (Homo sapiens (Human), UniProt Q06187). Kind of test: BTK Kinase Lanthascreen Binding Assay. As to conditions: Lanthascreen binding, 60 minutes incubation; pIC50 = negative log of the IC50 in molar. How it is done:
BTK Kinase Lanthascreen Binding Assay:
A BTK kinase lanthascreen binding assay monitors compound binding to unphosphorylated-BTK kinase domain (UP-BTK), by competing with a fluorescent labeled tracer. […] Data were analyzed using Xlfit™ version 5.3 from ID Business Solutions (Guildford), Microsoft Excel add-in. pIC50 refers to the negative log of the IC50 in molar.

Sequence of unphosphorylated-BTK kinase domain (UP-BTK), GST-tagged human BTK (389-659aa) (Q06187 389-659): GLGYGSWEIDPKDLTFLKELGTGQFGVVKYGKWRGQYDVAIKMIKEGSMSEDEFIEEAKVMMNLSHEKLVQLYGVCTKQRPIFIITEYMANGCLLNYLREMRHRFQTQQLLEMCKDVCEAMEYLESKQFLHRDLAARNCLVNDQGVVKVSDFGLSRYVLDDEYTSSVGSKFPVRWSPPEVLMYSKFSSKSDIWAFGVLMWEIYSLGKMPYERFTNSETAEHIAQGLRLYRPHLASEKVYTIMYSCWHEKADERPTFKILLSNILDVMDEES

With `Cc1cc(OC2CCCC2)ncc1N1C(=O)Nc2c(C(=O)N[C@@H]3CCC[C@@H]3N)sc3nccc1c23` (single isomer, unassigned) [Example 374, N-((1R,2S)-2-Aminocyclopentyl)-5-(*S)-(6-(cyclopentyloxy)-4-methylpyridin-3-yl)-4-oxo-4,5-dihydro-3H-1-thia-3,5,8-triazaacenaphthylene-2-carboxamide], the “BTK_I_binding pIC50” value was 6.82.

With `Cc1cc(Oc2ccccc2)ncc1N1C(=O)Nc2c(C(=O)N[C@@H]3CCCC[C@@H]3N)sc3nccc1c23` (single isomer, unassigned) [Example 375, N-((1R,2S)-2-Aminocyclohexyl)-5-(*S)-(4-methyl-6-phenoxypyridin-3-yl)-4-oxo-4,5-dihydro-3H-1-thia-3,5,8-triazaacenaphthylene-2-carboxamide], the “BTK_I_binding pIC50” value was found to be 6.92.

Regarding `CC(=O)N[C@H]1CCCC[C@H]1NC(=O)c1sc2nccc3c2c1NC(=O)N3c1cnc(Oc2ccccc2)cc1C` (single isomer, unassigned) [Example 377, N-((1R,2S)-2-Acetamidocyclohexyl)-5-(*S)-(4-methyl-6-phenoxypyridin-3-yl)-4-oxo-4,5-dihydro-3H-1-thia-3,5,8-triazaacenaphthylene-2-carboxamide], the “BTK_I_binding pIC50” value stood at 6.83.

In the case of `CC(=O)N[C@H]1CCC[C@H]1NC(=O)c1sc2nccc3c2c1NC(=O)N3c1cnc(Oc2ccccc2)cc1C` (single isomer, unassigned) [Example 378, N-((1R,2S)-2-Acetamidocyclopentyl)-5-(*S)-(4-methyl-6-phenoxypyridin-3-yl)-4-oxo-4,5-dihydro-3H-1-thia-3,5,8-triazaacenaphthylene-2-carboxamide], the “BTK_I_binding pIC50” value was 6.39.

With `CCC(=O)N[C@H]1CCCC[C@H]1NC(=O)c1sc2nccc3c2c1NC(=O)N3c1ccc(Oc2ccccc2)cc1C` (single isomer, unassigned) [Example 380, 5-(*S)-(2-Methyl-4-phenoxyphenyl)-4-oxo-N-((1R,2S)-2-propionamidocyclohexyl)-4,5-dihydro-3H-1-thia-3,5,8-triazaacenaphthylene-2-carboxamide], the “BTK_I_binding pIC50” value was found to be 7.20.

With `C=CC(=O)N[C@@H]1CCC[C@H]1NC(=O)c1sc2nccc3c2c1NC(=O)N3c1cnc(CC(C)C)cc1C` (single isomer, unassigned) [Example 382, N-((1R,2R)-2-Acrylamidocyclopentyl)-5-(*S)-(6-isobutyl-4-methylpyridin-3-yl)-4-oxo-4,5-dihydro-3H-1-thia-3,5,8-triazaacenaphthylene-2-carboxamide], the “BTK_I_binding pIC50” value was 7.68.

Regarding `CCC(=O)N[C@H]1CCC[C@@H](NC(=O)c2sc3nccc4c3c2NC(=O)N4c2cnc(Oc3ccccc3)cc2C)C1` (single isomer, unassigned) [Example 385, 5-(*S)-(4-Methyl-6-phenoxypyridin-3-yl)-4-oxo-N-((1R,3S)-3-propionamidocyclohexyl)-4,5-dihydro-3H-1-thia-3,5,8-triazaacenaphthylene-2-carboxamide], the “BTK_I_binding pIC50” value was found to be 7.98.

Take `CCC(=O)N[C@@H]1CC[C@@H](NC(=O)c2sc3nccc4c3c2NC(=O)N4c2cnc(Oc3ccccc3)cc2C)C1` (single isomer, unassigned) [Example 388, 5-(*S)-(4-Methyl-6-phenoxypyridin-3-yl)-4-oxo-N-((1R,3R)-3-propionamidocyclopentyl)-4,5-dihydro-3H-1-thia-3,5,8-triazaacenaphthylene-2-carboxamide]: the “BTK_I_binding pIC50” value is listed as 7.64.

Consider `CC(=O)N[C@H]1CC[C@@H](NC(=O)c2sc3nccc4c3c2NC(=O)N4c2cnc(Oc3ccccc3)cc2C)CC1` (single isomer, unassigned) [Example 389, N-((1S,4S)-4-Acetamidocyclohexyl)-5-(*S)-(4-methyl-6-phenoxypyridin-3-yl)-4-oxo-4,5-dihydro-3H-1-thia-3,5,8-triazaacenaphthylene-2-carboxamide], for which the “BTK_I_binding pIC50” value was 7.30.

For the compound `CCC(=O)N[C@@H]1CC[C@H](NC(=O)c2sc3nccc4c3c2NC(=O)N4c2cnc(Oc3ccccc3)cc2C)C1` (single isomer, unassigned) [Example 390, 5-(*S)-(4-Methyl-6-phenoxypyridin-3-yl)-4-oxo-N-((1S,3R)-3-propionamidocyclopentyl)-4,5-dihydro-3H-1-thia-3,5,8-triazaacenaphthylene-2-carboxamide], the “BTK_I_binding pIC50” value was determined as 8.04.

On to `CC(=O)N[C@@H]1CC[C@H](NC(=O)c2sc3nccc4c3c2NC(=O)N4c2cnc(Oc3ccccc3)cc2C)C1` (single isomer, unassigned) [Example 391, N-((1S,3R)-3-Acetamidocyclopentyl)-5-(*S)-(4-methyl-6-phenoxypyridin-3-yl)-4-oxo-4,5-dihydro-3H-1-thia-3,5,8-triazaacenaphthylene-2-carboxamide], for which the “BTK_I_binding pIC50” value is 7.86.

For `CC(=O)N[C@@H]1CC[C@@H](NC(=O)c2sc3nccc4c3c2NC(=O)N4c2cnc(Oc3ccccc3)cc2C)C1` (single isomer, unassigned) [Example 392, N-((1R,3R)-3-Acetamidocyclopentyl)-5-(*S)-(4-methyl-6-phenoxypyridin-3-yl)-4-oxo-4,5-dihydro-3H-1-thia-3,5,8-triazaacenaphthylene-2-carboxamide], the “BTK_I_binding pIC50” value was determined as 7.34.

Take `Cc1cc(OC2CCCC2)ncc1N1C(=O)Nc2c(C(=O)N[C@@H]3CC[C@H](N)C3)sc3nccc1c23` (single isomer, unassigned) [Example 394, N-((1R,3S)-3-Aminocyclopentyl)-5-(*S)-(6-(cyclopentyloxy)-4-methylpyridin-3-yl)-4-oxo-4,5-dihydro-3H-1-thia-3,5,8-triazaacenaphthylene-2-carboxamide]: the “BTK_I_binding pIC50” value was determined as 6.70.

For `CC(=O)N[C@H]1CC[C@H](NC(=O)c2sc3nccc4c3c2NC(=O)N4c2cnc(Oc3ccccc3)cc2C)C1` (single isomer, unassigned) [Example 395, N-((1S,3S)-3-Acetamidocyclopentyl)-5-(*S)-(4-methyl-6-phenoxypyridin-3-yl)-4-oxo-4,5-dihydro-3H-1-thia-3,5,8-triazaacenaphthylene-2-carboxamide], the “BTK_I_binding pIC50” value is on record as 6.66.

Take `Cc1cc(OCC(C)C)ncc1N1C(=O)Nc2c(C(=O)N[C@@H]3CCC[C@@H]3N)sc3nccc1c23` (single isomer, unassigned) [Example 397, N-((1R,2S)-2-Aminocyclopentyl)-5-(*S)-(6-isobutoxy-4-methylpyridin-3-yl)-4-oxo-4,5-dihydro-3H-1-thia-3,5,8-triazaacenaphthylene-2-carboxamide]: the “BTK_I_binding pIC50” value came out at 6.62.

As for `CCC(=O)N[C@H]1CC[C@H](NC(=O)c2sc3nccc4c3c2NC(=O)N4c2cnc(Oc3ccccc3)cc2C)C1` (single isomer, unassigned) [Example 399, 5-(*S)-(4-Methyl-6-phenoxypyridin-3-yl)-4-oxo-N-((1S,3S)-3-propionamidocyclopentyl)-4,5-dihydro-3H-1-thia-3,5,8-triazaacenaphthylene-2-carboxamide], the “BTK_I_binding pIC50” value is 6.51.

As for `CC(=O)N[C@H]1CCC[C@H](NC(=O)c2sc3nccc4c3c2NC(=O)N4c2cnc(Oc3ccccc3)cc2C)C1` (single isomer, unassigned) [Example 400, N-((1S,3S)-3-Acetamidocyclohexyl)-5-(*S)-(4-methyl-6-phenoxypyridin-3-yl)-4-oxo-4,5-dihydro-3H-1-thia-3,5,8-triazaacenaphthylene-2-carboxamide], the “BTK_I_binding pIC50” value was determined as 6.46.

As for `CCC(=O)N[C@H]1CCC[C@H](NC(=O)c2sc3nccc4c3c2NC(=O)N4c2cnc(Oc3ccccc3)cc2C)C1` (single isomer, unassigned) [Example 402, 5-(*S)-(4-Methyl-6-phenoxypyridin-3-yl)-4-oxo-N-((1S,3S)-3-propionamidocyclohexyl)-4,5-dihydro-3H-1-thia-3,5,8-triazaacenaphthylene-2-carboxamide], the “BTK_I_binding pIC50” value was 6.38.

On to `CC(=O)N[C@H]1CC[C@@H](NC(=O)c2sc3nccc4c3c2NC(=O)N4c2cnc(Oc3ccccc3)cc2C)C1` (single isomer, unassigned) [Example 403, N-((1R,3S)-3-Acetamidocyclopentyl)-5-(*S)-(4-methyl-6-phenoxypyridin-3-yl)-4-oxo-4,5-dihydro-3H-1-thia-3,5,8-triazaacenaphthylene-2-carboxamide], for which the “BTK_I_binding pIC50” value is recorded as 6.26.

Turning to `C=CC(=O)N[C@@H]1CCCC[C@H]1NC(=O)c1sc2nccc3c2c1NC(=O)N3c1cnc(CC(C)C)cc1C` (single isomer, unassigned) [Example 404, N-((1R,2R)-2-Acrylamidocyclohexyl)-5-(*S)-(6-isobutyl-4-methylpyridin-3-yl)-4-oxo-4,5-dihydro-3H-1-thia-3,5,8-triazaacenaphthylene-2-carboxamide], the “BTK_I_binding pIC50” value is 6.21.

Take `Cc1cc(OCC(C)C)ncc1N1C(=O)Nc2c(C(=O)N[C@@H]3CC[C@H](N)C3)sc3nccc1c23` (single isomer, unassigned) [Example 405, N-((1R,3S)-3-Aminocyclopentyl)-5-(*S)-(6-isobutoxy-4-methylpyridin-3-yl)-4-oxo-4,5-dihydro-3H-1-thia-3,5,8-triazaacenaphthylene-2-carboxamide]: the “BTK_I_binding pIC50” value is 6.16.

For `CC(=O)NC1CCC[C@H](NC(=O)c2sc3nccc4c3c2NC(=O)N4c2cnc(Oc3ccccc3)cc2C)C1` (single isomer, unassigned) [Example 407, N-((1S,3R)-3-Acetamidocyclohexyl)-5-(*S)-(4-methyl-6-phenoxypyridin-3-yl)-4-oxo-4,5-dihydro-3H-1-thia-3,5,8-triazaacenaphthylene-2-carboxamide], the “BTK_I_binding pIC50” value is 6.05.
